O=C(NCCO[N+](=O)[O-])c1cccnc1
solubility (mole fraction)
Details | 278.15 K | 283.15 K | 288.15 K | 293.15 K | 298.15 K | 303.15 K | 308.15 K | 313.15 K | 318.15 K | 323.15 K
in DMF | 0.0135 | 0.0146 | 0.0156 | 0.0168 | 0.0179 | 0.0191 | 0.0202 | 0.0213 | 0.0225 | 0.024
in ethanol | 0.00153 | 0.00167 | 0.00181 | 0.00195 | 0.00208 | 0.00222 | 0.00236 | 0.0025 | 0.00264 | 0.00281
in isopropanol | 0.0011 | 0.00119 | 0.00129 | 0.00139 | 0.00149 | 0.00159 | 0.00169 | 0.00178 | 0.00188 | 0.002
in methanol | 0.0017 | 0.00182 | 0.00195 | 0.00211 | 0.00226 | 0.0024 | 0.00256 | 0.00271 | 0.00286 | 0.00306
in water | 0.000204 | 0.000222 | 0.00024 | 0.000257 | 0.000275 | 0.000291 | 0.000307 | 0.000325 | 0.000346 | 0.000367

Source: BigSolDB 2.1
